Source: US12194140B2, “Compositions for topical treatment of microbial infections” (Hennepin Life Sciences, priority 2012, dated 2025)

Legend:
Listeria monocytogenes = assay: Spectrum of antibacterial activity of GML; assay type: cell-based; conditions: optimal growth conditions; 1 strain tested
Group F Streptococcus = assay: Spectrum of antibacterial activity of GML; assay type: cell-based; conditions: optimal growth conditions; 1 strain tested
Streptococcus agalactiae [1] = assay: GML in vegetable oil, growth in Todd Hewitt broth (CFU/mL); assay type: cell-based; conditions: GML in olive, palm or corn oil (all 3); 18 hours, 37° C.
Bacteroides fragilis = assay: Spectrum of antibacterial activity of GML; assay type: cell-based; conditions: optimal growth conditions; 2 strains tested
[2] = test system: Mycobacterium tuberculosis; assay type: cell-based
S. aureus strain MN8 = assay: Decolonization of contaminated surgical incision sites; assay type: in vivo, New Zealand white rabbits; conditions: GML 5% w/v non-aqueous gel swabbed
Group C Streptococcus = assay: Spectrum of antibacterial activity of GML; assay type: cell-based; conditions: optimal growth conditions; 1 strain tested
[3] = test system: Bordetella bronchiseptica; assay: Spectrum of antibacterial activity of GML; assay type: cell-based; conditions: optimal growth conditions; 1 strain tested
Proteus vulgaris = assay: Spectrum of antibacterial activity of GML; assay type: cell-based; conditions: optimal growth conditions; 1 strain tested
Mycoplasma hominis = assay: Spectrum of antibacterial activity of GML; assay type: cell-based; conditions: optimal growth conditions; 1 strain tested
Streptococcus pyogenes = assay: Spectrum of antibacterial activity of GML; assay type: cell-based; conditions: optimal growth conditions; 4 strains tested
S. aureus = assay: Decolonization of anterior nares; assay type: in vivo, human; conditions: 5% w/v GML in non-aqueous gel
Experimental: A study was undertaken to assess the ability of GML (5% w/v), formulated in a non-aqueous gel, to decolonize the respiratory tract in humans, and to decolonize contaminated surgical incision sites in experimental rabbits.
Three human subjects underwent swabs of the anterior nares in order to assess whether GML was capable of decolonizing the respiratory tract. […] The swabs were rotated around each nare up to the nasal bone 3 times. Colony-forming units of microbes from swabs were determined by plate counts on blood agar and mannitol salt agar. The anterior nares were then treated in the same way with swabs that had been dipped one time in GML gel. The anterior nares of each participant were swabbed at designated time periods for up to 24 hours, and swabs were cultured for S. aureus and coagulase-negative staphylococci.

[4] = test system: Bacillus anthracis Sterne; assay type: cell-based; conditions: optimal growth conditions; 1 strain tested
S. aureus MN8 = assay: Bactericidal activity of GML versus lauric acid; assay type: cell-based; conditions: 24 hours, 37° C.; bactericidal = at least 3 log reduction
S. pyogenes = assay: Bactericidal activity of GML versus lauric acid; assay type: cell-based; conditions: 24 hours, 37° C.
Gardnerella vaginalis [5] = assay: GML in vegetable oil, growth in Todd Hewitt broth (CFU/mL); assay type: cell-based; conditions: GML in olive, 18 hours, 37° C.
Haemophilus influenzae = assay: Effect of pH on GML activity; assay type: cell-based; conditions: 1 μg/mL GML
Experimental: A similar experiment was carried out to assess the effect of GML on the growth of Haemophilus influenzae at various pHs. 1 μg/mL GML had no effect on the growth of H. influenzae at a pH of 7.0 (FIG. 13).

Enterococcus faecalis = assay: Spectrum of antibacterial activity of GML; assay type: cell-based; conditions: optimal growth conditions; 1 strain tested
Streptococcus agalactiae [6] = assay: Spectrum of antibacterial activity of GML; assay type: cell-based; conditions: optimal growth conditions; 3 strains tested
E. coli (Watson strain) = assay: GML and EDTA on the growth of E. coli; assay type: cell-based; conditions: 24 hours; EDTA 0.05 M to 0.00005 M; GML 100 μg/mL
Experimental: E. coli (Watson strain) was adjusted to I.2×10^7/mL in Todd Hewitt media. […] Cultures were incubated with shaking (200 RPM) for 24 hours, at which time samples were removed for plate counting. To further assess the combined effects of GML and EDTA, the experiment was carried out as above, and the relative effects on the growth of E. coli of EDTA alone or the combination of GML and EDTA were assessed in direct comparison to GML alone.

S. aureus 128 (TSST-1) = assay type: cell-based
Gardnerella vaginalis [7] = assay: Spectrum of antibacterial activity of GML; assay type: cell-based; conditions: optimal growth conditions; 2 strains tested
[8] = test system: Haemophilus influenzae Non-typable; assay: Spectrum of antibacterial activity of GML; assay type: cell-based; conditions: optimal growth conditions; 2 strains tested
Pasteurella multocida = assay: Spectrum of antibacterial activity of GML; assay type: cell-based; conditions: optimal growth conditions; 1 strain tested

Glycerol monolaurate [GML]
Average Bactericidal Concentration of GML (Listeria monocytogenes): 50 µg/mL | Average Bactericidal Concentration of GML (Group F Streptococcus): 20 µg/mL | GML concentration at which growth was completely or nearly completely inhibited (Streptococcus agalactiae [1]): ≥ 20 µg/mL | Average Bactericidal Concentration of GML (Bacteroides fragilis): 50 µg/mL | Average Bactericidal Concentration of GML [2]: 100 µg/mL | S. aureus CFU/mL at surgical incision sites (S. aureus strain MN8; 24 hour time-point, PBS control 8.8 log CFU/mL): no CPUs were detectable | inflammation at the surgical site (redness) (S. aureus strain MN8; 24 hours, versus PBS): less inflammation | Average Bactericidal Concentration of GML (Group C Streptococcus): 30 µg/mL | Average Bactericidal Concentration of GML [3]: 1 µg/mL | Average Bactericidal Concentration of GML (Proteus vulgaris): Not Susceptible | Average Bactericidal Concentration of GML (Mycoplasma hominis): 1 µg/mL | Average Bactericidal Concentration of GML (Streptococcus pyogenes): 30 µg/mL | S. aureus counts in both nares after treatment (S. aureus; swab, three subjects, all time-points up to 24 hour): 0 CFU/mL | S. aureus counts over 3 day test period (S. aureus; one subject): 0 | Average Bactericidal Concentration of GML [4]: 50 µg/mL | fold lower bactericidal concentration than lauric acid (S. aureus MN8): 200 fold | fold more bactericidal for S. pyogenes than for S. aureus (S. pyogenes): 5 fold | fold lower bactericidal concentration than lauric acid (S. pyogenes; 7% CO2, bactericidal = at least 3 log reduction): 500 fold | GML concentration at which growth was completely or nearly completely inhibited (Gardnerella vaginalis [5]; palm or corn oil (all 3)): ≥ 20 µg/mL | GML concentration at which CFU/mL were reduced (Gardnerella vaginalis [5]; palm or corn oil (all three)): ≤ 10 µg/mL | effect on growth (CFU/mL) (Haemophilus influenzae; pH 6.0, 4, 8, and 24 hours): completely abrogated the growth | effect on growth (CFU/mL) (Haemophilus influenzae; pH 7.0): no effect | Average Bactericidal Concentration of GML (Enterococcus faecalis): 100 µg/mL | Average Bactericidal Concentration of GML (Streptococcus agalactiae [6]): 30 µg/mL | anti-bacterial activity on growth of E. coli (CFU/mL) (E. coli (Watson strain)): did not exhibit any bactericidal activity | TSST-1 in tampon sacs (Western immunoblot) (S. aureus 128 (TSST-1)): not detected | Average Bactericidal Concentration of GML (Gardnerella vaginalis [7]): 10 µg/mL | Average Bactericidal Concentration of GML [8]: 50 µg/mL | Average Bactericidal Concentration of GML (Pasteurella multocida): 500 µg/mL
